Data as given in the Kinase Knowledgebase extract (Sharma et al. 2016).

What follows are molecules tested against CDK2 (UniProt P24941) (assay: Enzyme Assay).

SMILES | IC50
O=C(Cc1ccc([N+](=O)[O-])cc1)Nc1n[nH]c2ccc(N3CCCS3(=O)=O)cc12 | < 50 nM
O=C(Cc1ccc(OCc2ccccc2)cc1)Nc1n[nH]c2ccc(N3CCCS3(=O)=O)cc12 | < 100 nM
O=C(Cc1ccc(Cl)cc1)Nc1n[nH]c2ccc(N3CCCS3(=O)=O)cc12 | < 50 nM
CC(C)c1ccc(CC(=O)Nc2n[nH]c3ccc(N4CCCS4(=O)=O)cc23)cc1 | < 50 nM
O=C(Cc1ccc(F)cc1)Nc1n[nH]c2ccc(N3CCCS3(=O)=O)cc12 | < 50 nM
CCOc1ccc(CC(=O)Nc2n[nH]c3ccc(N4CCCS4(=O)=O)cc23)cc1S(=O)(=O)N1CCOCC1 | < 1000 nM
CCOCCOCCOc1ccc(CC(=O)Nc2n[nH]c3ccc(N4CCCS4(=O)=O)cc23)cc1 | < 100 nM
CCOc1ccccc1N1CCN(CC(=O)Nc2n[nH]c3ccc(N4CCCS4(=O)=O)cc23)CC1 | < 10000 nM
O=C(Cn1cnc(-c2ccc(-c3ccccc3)cc2)c1)Nc1n[nH]c2ccc(N3CCCS3(=O)=O)cc12 | < 500 nM
O=C(Nc1n[nH]c2ccc(N3CCCS3(=O)=O)cc12)C1(c2ccccc2)CCCC1 | < 100000 nM
O=C(Cc1ccc(S(=O)(=O)N2CCOCC2)cc1)Nc1n[nH]c2ccc(N3CCCS3(=O)=O)cc12 | < 100 nM
O=C(Cc1ccc(CN2CCOCC2)cc1)Nc1n[nH]c2ccc(N3CCCS3(=O)=O)cc12 | < 100 nM
O=C(Cc1ccc(Cn2ccnc2)cc1)Nc1n[nH]c2ccc(N3CCCS3(=O)=O)cc12 | < 1000 nM
O=C(Cn1cnc(-c2ccc3ccccc3c2)c1)Nc1n[nH]c2ccc(N3CCCS3(=O)=O)cc12 | < 50 nM
O=C(CN1CCc2ccccc2C1)Nc1n[nH]c2ccc(N3CCCS3(=O)=O)cc12 | < 1000 nM
CCN(CC)c1ccc(CC(=O)Nc2n[nH]c3ccc(N4CCCS4(=O)=O)cc23)cc1 | < 50 nM
O=C(Cc1ccc(-c2ccccc2)cc1)Nc1n[nH]c2ccc(N3CCCS3(=O)=O)cc12 | < 50 nM
O=S1(=O)CCCN1c1ccc2[nH]nc(NC(Cc3ccccc3)=NO)c2c1 | < 10000 nM

SMILES | IC50
CCN(CC)c1nc(CC(=O)Nc2n[nH]c3ccc(N4CCCS4(=O)=O)cc23)cs1 | < 500 nM
COCCOCCOCCOc1ccc(CC(=O)Nc2n[nH]c3ccc(N4CCCS4(=O)=O)cc23)cc1 | < 100 nM
CCNc1nc(CC(=O)Nc2n[nH]c3ccc(N4CCCS4(=O)=O)cc23)cs1 | < 500 nM
CC(C)(C)OC(=O)Nc1nc(CC(=O)Nc2n[nH]c3ccc(N4CCCS4(=O)=O)cc23)cs1 | < 100 nM
Cc1ccc(CC(=O)Nc2n[nH]c3ccc(N4CCCS4(=O)=O)cc23)cc1 | < 50 nM
O=C(Cc1ccc2ccccc2c1)Nc1n[nH]c2ccc(N3CCCS3(=O)=O)cc12 | < 50 nM
Cc1cccc(CC(=O)Nc2n[nH]c3ccc(N4CCCS4(=O)=O)cc23)c1 | < 50 nM
O=C(Cc1ccc(N2CCOCC2)cc1)Nc1n[nH]c2ccc(N3CCCS3(=O)=O)cc12 | < 100 nM
O=C(CN1CCN(c2ccccc2)CC1)Nc1n[nH]c2ccc(N3CCCS3(=O)=O)cc12 | < 500 nM
O=C(Cc1cccc(Br)c1)Nc1n[nH]c2ccc(N3CCCS3(=O)=O)cc12 | < 50 nM
CCOc1ccc(CC(=O)Nc2n[nH]c3ccc(N4CCCS4(=O)=O)cc23)cc1[N+](=O)[O-] | < 50 nM
CC(=S)Nc1n[nH]c2ccc(N3CCCS3(=O)=O)cc12 | < 50000 nM
CC(=O)c1ccc(N2CCN(CC(=O)Nc3n[nH]c4ccc(N5CCCS5(=O)=O)cc34)CC2)cc1 | < 10000 nM
O=S1(=O)CCCN1c1ccc2[nH]nc(NC(=S)Cc3ccccc3)c2c1 | < 10000 nM
O=C(Cc1ccccc1)Nc1n[nH]c2ccc(N3CCCS3(=O)=O)cc12 | < 50 nM
CCC(C(=O)Nc1n[nH]c2ccc(N3CCCS3(=O)=O)cc12)c1ccccc1 (stereo not given) | < 100000 nM
CCOc1ccc(CC(=O)Nc2n[nH]c3ccc(N4CCCS4(=O)=O)cc23)cc1 | < 50 nM
Nc1cccc(CC(=O)Nc2n[nH]c3ccc(N4CCCS4(=O)=O)cc23)c1 | < 50 nM

Results, then the molecule that gave them:

IC50 | SMILES
< 500 nM | Nc1nc(CC(=O)Nc2n[nH]c3ccc(N4CCCS4(=O)=O)cc23)cs1
< 10000 nM | O=C(CN1CCN(c2ccc(Cl)cc2)CC1)Nc1n[nH]c2ccc(N3CCCS3(=O)=O)cc12
< 50 nM | CSc1ccc(CC(=O)Nc2n[nH]c3ccc(N4CCCS4(=O)=O)cc23)cc1
< 50 nM | O=C(Cc1cccc(Cl)c1)Nc1n[nH]c2ccc(N3CCCS3(=O)=O)cc12
< 500 nM | CCN(CC)c1cccc(CC(=O)Nc2n[nH]c3ccc(N4CCCS4(=O)=O)cc23)c1
< 100 nM | O=C(Cn1cnc(-c2ccc(Br)cc2)c1)Nc1n[nH]c2ccc(N3CCCS3(=O)=O)cc12
< 50 nM | O=C(Cc1cccc2ccccc12)Nc1n[nH]c2ccc(N3CCCS3(=O)=O)cc12
< 50 nM | O=C(Cc1ccc(-c2ccncc2)cc1)Nc1n[nH]c2ccc(N3CCCS3(=O)=O)cc12
< 50 nM | O=C(Cc1ccc(Br)cc1)Nc1n[nH]c2ccc(N3CCCS3(=O)=O)cc12
< 100 nM | O=C(Cc1ccc(Oc2ccccc2)cc1)Nc1n[nH]c2ccc(N3CCCS3(=O)=O)cc12
< 50 nM | CCOc1cccc(CC(=O)Nc2n[nH]c3ccc(N4CCCS4(=O)=O)cc23)c1
< 100000 nM | CC(=NO)Nc1n[nH]c2ccc(N3CCCS3(=O)=O)cc12
< 10000 nM | COc1ccc(N2CCN(CC(=O)Nc3n[nH]c4ccc(N5CCCS5(=O)=O)cc34)CC2)cc1
< 100 nM | CCOc1ccc(CC(=O)Nc2n[nH]c3ccc(N4CCCS4(=O)=O)cc23)cc1Cl
< 50 nM | COc1cc(CC(=O)Nc2n[nH]c3ccc(N4CCCS4(=O)=O)cc23)cc(OC)c1
< 50 nM | O=C(Cc1ccc(O)cc1)Nc1n[nH]c2ccc(N3CCCS3(=O)=O)cc12
< 10000 nM | CN1CCN(CC(=O)Nc2n[nH]c3ccc(N4CCCS4(=O)=O)cc23)CC1
< 50 nM | CNc1ccc(CC(=O)Nc2n[nH]c3ccc(N4CCCS4(=O)=O)cc23)cc1
< 50 nM | O=C(Cc1ccc2c(c1)OCO2)Nc1n[nH]c2ccc(N3CCCS3(=O)=O)cc12
< 1000 nM | CN1CCN(S(=O)(=O)c2ccc(CC(=O)Nc3n[nH]c4ccc(N5CCCS5(=O)=O)cc34)cc2)CC1
< 1000 nM | CCOc1ccc(CC(=O)Nc2n[nH]c3ccc(N4CCCS4(=O)=O)cc23)cc1S(N)(=O)=O
< 50 nM | Nc1ccc(CC(=O)Nc2n[nH]c3ccc(N4CCCS4(=O)=O)cc23)cc1

IC50 | SMILES
> 100000 nM | CC(=O)Nc1n[nH]c2ccc(N3CCCS3(=O)=O)cc12
< 100000 nM | O=C(Nc1n[nH]c2ccc(N3CCCS3(=O)=O)cc12)C(c1ccccc1)C1CCCC1 (stereo not given)
< 50 nM | O=C(Cc1ccc(Cl)c(Cl)c1)Nc1n[nH]c2ccc(N3CCCS3(=O)=O)cc12
< 50 nM | O=C(Cn1cnc2ccccc21)Nc1n[nH]c2ccc(N3CCCS3(=O)=O)cc12
< 500 nM | CCNc1cccc(CC(=O)Nc2n[nH]c3ccc(N4CCCS4(=O)=O)cc23)c1
< 1000 nM | O=C(CCc1ccccc1)Nc1n[nH]c2ccc(N3CCCS3(=O)=O)cc12
< 50 nM | O=C(Cc1ccc(-c2ccco2)cc1)Nc1n[nH]c2ccc(N3CCCS3(=O)=O)cc12
< 50 nM | O=C(Cn1cnc(-c2ccccc2)c1)Nc1n[nH]c2ccc(N3CCCS3(=O)=O)cc12
< 100 nM | Cc1ccccc1CC(=O)Nc1n[nH]c2ccc(N3CCCS3(=O)=O)cc12
< 50 nM | CCNc1ccc(CC(=O)Nc2n[nH]c3ccc(N4CCCS4(=O)=O)cc23)cc1
< 1000 nM | CCOc1ccc(CC(=O)Nc2n[nH]c3ccc(N4CCCS4(=O)=O)cc23)cc1S(=O)(=O)N1CCN(C)CC1
< 10000 nM | O=C(CN1CCOCC1)Nc1n[nH]c2ccc(N3CCCS3(=O)=O)cc12
< 100 nM | NCCOc1ccc(CC(=O)Nc2n[nH]c3ccc(N4CCCS4(=O)=O)cc23)cc1
< 50 nM | O=C(Cc1cccc([N+](=O)[O-])c1)Nc1n[nH]c2ccc(N3CCCS3(=O)=O)cc12
< 10000 nM | O=C(CN1CCCCC1)Nc1n[nH]c2ccc(N3CCCS3(=O)=O)cc12
< 10000 nM | O=C(Cc1csc(NCc2ccc(OCc3ccccc3)cc2)n1)Nc1n[nH]c2ccc(N3CCCS3(=O)=O)cc12
< 50 nM | O=C(Cc1ccc(-c2ccsc2)cc1)Nc1n[nH]c2ccc(N3CCCS3(=O)=O)cc12
< 50 nM | CS(=O)(=O)c1ccc(CC(=O)Nc2n[nH]c3ccc(N4CCCS4(=O)=O)cc23)cc1
< 100 nM | CN1CCN(Cc2ccc(CC(=O)Nc3n[nH]c4ccc(N5CCCS5(=O)=O)cc34)cc2)CC1
< 500 nM | O=C(Cc1ccc(N(Cc2ccccc2)Cc2ccccc2)cc1)Nc1n[nH]c2ccc(N3CCCS3(=O)=O)cc12
< 10000 nM | CC(=O)Nc1nc(CC(=O)Nc2n[nH]c3ccc(N4CCCS4(=O)=O)cc23)cs1
< 100 nM | COc1ccc(CC(=O)Nc2n[nH]c3ccc(N4CCCS4(=O)=O)cc23)cc1
